Tests used:
tag-less HupZ = biological target: T1, tag-less HupZ (Streptococcus pyogenes, UniProt Q9A0B9); test: UV-VIS Soret shift of heme-loaded protein; format: binding; conditions: holo protein (heme b bound); 1.6 mM imidazole as axial ligand of the heme iron; pH 7.4
T1 construct: gene SPy_0844; full-length HupZ from His-MBP-HupZ, tag cut by TEV protease leaving a serine residue; expressed in E. coli; 15 kD on SDS-PAGE

MBP-HupZ = biological target: T2, MBP-HupZ (Streptococcus pyogenes, UniProt Q9A0B9); test: UV-VIS Soret shift of heme-loaded protein; format: binding; conditions: holo protein (heme b bound); 1.6 mM imidazole as axial ligand of the heme iron; pH 7.4
T2 construct: gene SPy_0844; N-terminal MBP fusion kept (pKV135); E. coli BL21(DE3); monomer on native PAGE
T2 sequence (Q9A0B9 entry or part of it): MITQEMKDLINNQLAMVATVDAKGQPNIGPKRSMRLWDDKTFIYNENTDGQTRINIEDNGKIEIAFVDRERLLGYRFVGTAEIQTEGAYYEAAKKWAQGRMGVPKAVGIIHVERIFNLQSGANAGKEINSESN

T1 sequence (Q9A0B9 entry or part of it): as above

c1c[nH]cn1 [imidazole]
UV-VIS Soret shift of heme-loaded protein (tag-less HupZ): exogenous imidazole can coordinate the iron in holo tag-less and MBP-HupZ | UV-VIS Soret shift of heme-loaded protein (MBP-HupZ): exogenous imidazole can coordinate the iron in holo tag-less and MBP-HupZ

From publication PMC9237417, “HupZ, a Unique Heme-Binding Protein, Enhances Group A Streptococcus Fitness During Mucosal Colonization” (Frontiers in Cellular and Infection Microbiology, 2022)
